Reference: US11613545B2, “Macrocyclic compound serving as Wee1 inhibitor and applications thereof” (WUXI BIOCITY BIOPHARMACEUTICS CO., LTD., priority 2017, dated 2023)

How the values were obtained:
Wee1 = target: T1, Wee1 (Homo sapiens, UniProt P30291); test: In vitro enzymatic inhibitory activity, Wee1 kinase (Eurofins, [γ-33P]-ATP filter assay); assay type: biochemical; conditions: 10 μM [γ-33P]-ATP, 40 min at room temperature
T1 construct: purchased Eurofins
Method: The experimental tests were conducted at Eurofins, and the results were provided by the company.
After adding the mixed solution of Mg^2+ and ATP, the reaction started and the reaction solution was incubated at room temperature for 40 min. 3% phosphate buffer was added to stop the reaction. 10 μL of the reaction solution was filtered on a continuous filter P30, washed three times with 75 mM phosphate buffer, once with methanol, and 5 minutes each time. After drying, the value was read by scintillation counting method.

P-gp (MDR1) = test: In vitro permeability test in MDR1-MDCK II cells (bidirectional transport); assay type: in vitro ADME, canine; conditions: dog
Source text: (§1) The study used MDR1-MDCK II cells authorized by Piet Borst laboratory of the Netherlands Cancer Institute, which are a kind of Madin-Darby canine kidney cells transfected with human multi-drug resistance gene (MDR1). The cells can stably express the efflux transporter P glycoprotein (P-gp), so they are suitable for screening P-gp substrates or inhibitors, and predict that the compounds have high efflux barrier permeability such as duodenum, blood-brain barrier, hepatocyte nucleus and renal unit. We used the 5th to 35th generation MDR1-MDCK II cells for permeability study.
(§2) MDR1-MDCK II cells were cultured with α-MEM medium (α-Minimum Essential Media) under the conditions of 37±1° C., 5% CO2 and saturated relative humidity. After that, the cells were inoculated in a BD Transwell-96-well plate with an inoculation density of 2.3×10^5 cells/cm^2, and then the cells were placed in a carbon dioxide incubator for 4-7 days and used for transport experiments. The preparation method of α-MEM medium was as follows: the liquid nutrient base was prepared by dissolving powder (α-MEM powder from Gibco, Cat #: 11900) in pure water, and L-glutamine and NaHCO3 were added. 10% FBS (fetal bovine serum), 1% PS (dual antibiotic) and 1% NEAA were added to make it a complete medium when using.
(§3) Fenoterol and propranolol were tested at a concentration of 2 μM, administered unidirectionally (A-B direction), and duplicated in two wells.
(§4) The solution to be used was pre-incubated in a 37±1° C. water bath for 30 minutes. The dosing solution and the receiving solution were added to the corresponding well positions of the cell plate (75 and 250 μL for each top and bottom well, respectively) to start the bidirectional transport experiment. After loading, the cell plates were placed in an incubator at 37±1° C., 5% CO2 and saturated relative humidity for 150 minutes.
(§5) After vortexing, all samples were centrifuged at 3,220 g for 10 minutes. An appropriate volume of supernatant was transferred to the sample analysis plate, and analyzed by LC/MS/MS. If samples were not analyzed immediately after sealing, they were store at 2-8° C.
(§6) After the transport experiment was completed, the integrity of MDR1-MDCK II cells was tested using Lucifer Yellow Rejection Assay. After incubating the fluorescent yellow solution for 30 minutes, the fluorescent yellow samples were collected, and the relative fluorescence unit (RFU) of the fluorescent yellow in the sample was detected at 425/528 nm (excitation/emission) by the 2e plate reader.
(§7) Semi-quantitative analysis was used for the test products AZD1775 (or the compound of the present invention), the control products fenoterol, propranolol and digoxin. The ratio of the peak area of the analyte to the internal standard was used as the concentration of the reference substance.

P-gp (human MDR1) = test: as above; assay type: in vitro ADME, canine; conditions: dog; for Papp A→B at 150 min, 2 μM: A to B, read-out: Penetration rate A to B; for Papp B→A at 150 min, 2 μM: B to A, read-out: Penetration rate B to A
Source text: as §1, §2, §3, §4, §5, §6, §7

[1] = Pharmacokinetic evaluation in plasma after single intravenous and single oral administration; assay type: in vivo; conditions: mouse, female Balb/c Nude mice
Method: Twelve mice (provided by Lingchang Biotech) were randomly divided into two groups, 6 females in each group, and samples were collected by cross blood collection. […] In the intravenous group, plasma samples were collected at 9 time points of 5 minutes, 15 minutes, 30 minutes, 1 hour, 2 hours, 4 hours, 6 hours, 8 hours, and 24 hours after administration; in the oral group, plasma samples were collected at 8 time points of 15 minutes, 30 minutes, 1 hour, 2 hours, 4 hours, 6 hours, 8 hours, and 24 hours after administration.

[2] = system: human colon cancer LoVo cell subcutaneous xenograft tumor; test: In vivo pharmacodynamic study, LoVo subcutaneous xenograft tumor model; design: species or system BALB/c nude mice; conditions: 40 mg/kg twice daily, after administration for 16 days
Method: (1) In vivo pharmacodynamic study of the compounds on human colon cancer LoVo cell subcutaneous xenograft tumor BALB/c nude mouse model
Experimental method: The selected experimental animal (provided by Shanghai Xipu'er-bikai Experimental Animal Co., Ltd.) were BALB/c nude mice, 6-8 weeks old, weighing 18-22 grams.
Human colon cancer LoVo cells were cultured in monolayer in vitro. The culture conditions were Ham's F-12 medium containing 10% fetal bovine serum, 100 U/mL penicillin, 100 μg/mL streptomycin and 2 mM glutamine, 37° C., 5% CO2 culture. Conventional digestion treatment with trypsin-EDTA was performed twice a week for passaging. When the cell saturation was 80%-90%, the cells were collected, counted, and inoculated. 0.1 mL (10×10^6) LoVo cells were subcutaneously inoculated into the right back of each nude mouse. When the average tumor volume reached 213 mm^3, they were divided into groups and the drug administration was started. Dosage: 40 mg/kg twice daily. The experimental index is to investigate whether the tumor growth is inhibited, delayed or cured. The diameter of the tumor was measured with vernier calipers twice a week. The calculation formula of tumor volume is: V=0.5a×b^2, a and b represent the long and short diameters of the tumor, respectively.
The antitumor efficacy of the compound was evaluated by TGI (%) or relative tumor proliferation rate T/C (%). […]

[3] = system: human pancreatic cancer BxPC-3 subcutaneously transplanted tumor; test: In vivo pharmacodynamic study, BxPC-3 subcutaneously transplanted tumor model; design: species or system BALB/c nude mice; conditions: BxPC-3 xenograft, 25 mg/kg once a day, after administration for 27 days
Method: (2) In vivo pharmacodynamic study of the compound on human pancreatic cancer BxPC-3 BALB/c nude mouse subcutaneously transplanted tumor model
Experimental method: The selected experimental animal was BALB/c nude nude mice, 6-8 weeks old, weighing 18-22 grams.
The 10th generation of BxPC-3 cells were cultured in monolayer in vitro. The culture conditions were RPMI 1640 medium (manufacturer: gibco, article number: 22400-089) containing 10% fetal bovine serum, 100 U/mL penicillin and 100 μg/mL streptomycin, 37° C. 5% CO2 culture, passage was performed for 4 times. The passaging method was conventional digestion treatment with trypsin-EDTA twice a week. When the cell saturation reached 80%-90%, the cells were digested with trypsin-EDTA, counted, and resuspended in PBS at a density of 5×10^7 cells/mL. Each animal was inoculated with 0.1 mL (5×10^6) BxPC-3 cells in the right back. When the average tumor volume reached 153 mm^3, they were randomly divided into groups according to the tumor volume and the drug administration was started. Dosage: 25 mg/kg, once a day.
The experimental index is to investigate whether the tumor growth is inhibited, delayed or cured. The diameter of the tumor was measured with vernier calipers twice a week. The antitumor efficacy of the compound was evaluated by TGI (%) or relative tumor proliferation rate T/C (%). TGI (%) reflects the tumor growth inhibition rate. […]

[4] = system: CT26 mouse colon cancer transplanted tumor; test: In vivo anti-tumor efficacy, CT26 colon cancer transplanted tumor model; design: species or system BALB/c nude mice; conditions: 30 mg/kg twice daily, after administration for 18 days
Method: (3) In vivo anti-tumor efficacy of the compounds on CT26 mouse colon cancer animal transplanted tumor model
Experimental method: The selected experimental animal was BALB/c nude mice, 7 weeks old, weighing 16-20 grams, female.
Cells: Mouse colon cancer CT26 cells (the Cell Bank of Typical Culture Preservation Committee of the Chinese Academy of Sciences) were cultured in monolayer in vitro. The culture conditions were RPMI-1640 medium containing 10% fetal bovine serum and 37° C. 5% CO2 incubator. Conventional digestion treatment with trypsin-EDTA was performed twice a week for passaging. When the cells were in the exponential growth phase and the saturation was 80%-90%, the cells were collected, counted, and inoculated. 0.1 mL DPBS (containing 3×10^5 CT26 cells) was subcutaneously inoculated into the right back of each mouse. When the average tumor volume reached 50-70 mm^3, randomized administration was performed according to tumor volume. Dosage: 30 mg/kg twice daily.
The experimental index is to investigate whether the tumor growth is inhibited, delayed or cured. The diameter of the tumor was measured with vernier calipers twice a week. The antitumor efficacy of the compound was evaluated by TGI (%) or relative tumor proliferation rate T/C (%). TGI (%) reflects the tumor growth inhibition rate.
After the final administration for 18 days, the experimental results are as follows: […]

T1 sequence (P30291 whole entry): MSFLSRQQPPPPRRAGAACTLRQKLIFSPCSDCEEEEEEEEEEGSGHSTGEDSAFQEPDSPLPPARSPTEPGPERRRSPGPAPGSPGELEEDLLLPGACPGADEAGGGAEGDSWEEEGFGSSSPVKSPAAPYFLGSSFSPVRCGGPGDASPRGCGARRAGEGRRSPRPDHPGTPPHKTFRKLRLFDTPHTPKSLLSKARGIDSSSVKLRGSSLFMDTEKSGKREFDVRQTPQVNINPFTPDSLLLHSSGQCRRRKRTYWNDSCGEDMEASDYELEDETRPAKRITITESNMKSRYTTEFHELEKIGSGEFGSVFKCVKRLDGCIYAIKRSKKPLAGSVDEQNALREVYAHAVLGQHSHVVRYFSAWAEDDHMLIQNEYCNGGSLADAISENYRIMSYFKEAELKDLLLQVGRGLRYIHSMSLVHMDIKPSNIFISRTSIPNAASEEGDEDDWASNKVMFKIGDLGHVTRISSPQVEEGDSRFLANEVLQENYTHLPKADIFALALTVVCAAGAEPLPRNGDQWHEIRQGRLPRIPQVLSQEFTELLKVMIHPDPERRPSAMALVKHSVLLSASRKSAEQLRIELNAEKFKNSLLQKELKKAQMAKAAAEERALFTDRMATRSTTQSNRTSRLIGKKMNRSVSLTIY

| SMILES | IC50 (Wee1) | efflux ratio at 150 min, 2 μM (P-gp (MDR1)) | Papp A→B at 150 min, 2 μM (P-gp (human MDR1)) | Papp B→A at 150 min, 2 μM (P-gp (human MDR1)) | clearance ([1]; 1 mg/kg intravenous, 10 mg/kg oral study, read-out: Clearance rate) | AUC ([1]; 1 mg/kg intravenous, 10 mg/kg oral study, read-out: Concentration integral AUC) | half-life ([1]; 1 mg/kg intravenous, 10 mg/kg oral study, read-out: Half-life T1/2 (converted)) | bioavailability ([1]; po, 10 mg/kg by gavage vs 1 mg/kg intravenous, read-out: Bioavailability F) | TGI (%) [2] | TGI (%) [3] | TGI (%) [4] |
| --- | --- | --- | --- | --- | --- | --- | --- | --- | --- | --- | --- |
| CN1CCN(c2ccc(Nc3ncc4c(=O)n5n(c4n3)-c3cccc(n3)C(C)(O)CC/C=C\C5)cc2)CC1 (single isomer, unassigned) [Compound 1] | 29 nM | 3.82 | 45.5 nm/s | 174 nm/s | 2.01 L/h/kg | 6.04 µM·h | 1.69 h | 62.4% | 84.74% | 73.3% | 93.38% |
| C=CCn1c(=O)c2cnc(Nc3ccc(N4CCN(C)CC4)cc3)nc2n1-c1cccc(C(C)(C)O)n1 [AZD1775, reference compound] |  |  | 28.3 nm/s | 293 nm/s |  |  |  |  | 26.73% | 24.3% | 66.43% |
